Values quoted from earlier work in US8865213B2, “Modified release pharmaceutical compositions” (USV Limited, priority 2009, dated 2014).

Solubility in ethanol (ethanol): soluble
Solubility in water (water): practically insoluble
SMILES: COC(=O)C1=C(C)NC(C)=C(C(=O)OCC(C)C)C1c1ccccc1[N+](=O)[O-] (centres unmarked) [Nisoldipine, 3,5-pyridinedicarboxylic acid, 1,4-dihydro-2,6-dimethyl-4-(2-nitrophenyl)-, methyl 2-methyl-propyl ester]
